The numbers were not newly measured in patent publication EP0731703B1, “LIPOSOMAL FORMULATIONS CONTAINING VIDARABINE OR ITS DERIVATIVES” (INSTITUTO NACIONAL DE ENGENHARIA E TECNOLOGIA …, priority 1993, dated 1995), which cites them from elsewhere.

For this data set the following is noted: literature (Schabel 1968; LePage et al. 1972).

SMILES strings stand for the structures.

With `Nc1ncnc2c1ncn2[C@@H]1O[C@H](CO)[C@@H](O)[C@@H]1O` [ARA-A, 9-β-D-arabinofuranosyladenine], the aqueous solubility entry was “poor aqueous solubility”.
With `Nc1ncnc2c1ncn2[C@@H]1O[C@H](COP(=O)(O)O)[C@@H](O)[C@@H]1O` [ARA-AMP, 9-β-D--arabinofuranosyladenine monophosphate], the aqueous solubility result is recorded as “water-soluble”.
